Data as given in a melting point compilation (Tetko et al.).

O=C(O)c1ccc(Cl)c(S(=O)(=O)N2CCCCC2)c1 showed a melting point of 218 to 220 °C.
Cc1oncc1C(=O)Nc1ccc(C(=O)O)cc1 showed a melting point of 229 to 231 °C.
Cc1noc(C)c1CC(=O)O showed a melting point of 117 to 119 °C.
For O=C1NC2(CCCCC2)NC2=C1CCCC2, the melting point was 193 to 195 °C.
With O=C(O)c1ccc(Cn2cccc2)cc1 the melting point was 161 to 163 °C.
For Nc1cccc(S(=O)(=O)N2CCNC(=O)C2)c1, the melting point was 189 to 191 °C.
With CCC(Br)C(N)=O (configuration not stated) the melting point was 108 to 110 °C.
Work on Cc1nc(-c2cccc(Cl)c2)sc1C(=O)O yielded a melting point of 191 to 193 °C.
CC(C)c1nccn1Cc1cccc(N)c1 showed a melting point of 88 to 90 °C.
Compound Cc1ccsc1C(N)=S has a melting point of 117 to 119 °C.
In the case of O=C(O)c1cc2ccc(Cl)cc2[nH]1, the melting point is reported as 242 to 244 °C.
With O=C(O)CCc1cnn(-c2ccccc2)c1 the melting point was 80 to 89 °C.
CCCC(=O)Nc1nc2ccc(N)cc2s1 gave a melting point of 182 to 184 °C.
For Nc1nc(Cc2ccccc2Br)cs1, the melting point was 115 to 117 °C.
In the case of O=c1ccc(-n2cncn2)n[nH]1, the melting point is reported as 240 to 242 °C.
Compound Cc1cccc2[nH]cc(C=O)c12 has a melting point of 188 to 190 °C.
In the case of CCc1cnc(N)s1, the melting point is reported as 54 to 56 °C.
Compound Cc1cc2ccc(Cl)cc2nc1NN has a melting point of 169 to 171 °C.
With Cc1cc(NC(C)C)ccc1C(N)=O the melting point was 132 to 134 °C.
Work on CCN(CC)S(=O)(=O)c1ccc(Cl)c(C(=O)O)c1 yielded a melting point of 121 to 125 °C.
For Cc1cccc(-n2nc(-c3ccco3)cc2N)c1, the melting point was 82 to 84 °C.
For NC1(c2nnn[nH]2)CCC1, the melting point was 254 to 256 °C.
Compound Cc1noc(C)c1COc1ccc(C(=O)O)cc1 has a melting point of 224 to 226 °C.
Work on CCCCCCOC(=O)c1ccc(N)cc1 yielded a melting point of 59 to 61 °C.
Cc1cc(C)n2nc(C)c(C(=O)O)c2n1 gave a melting point of 226 to 228 °C.
For O=C(O)c1ccc(-n2cnnn2)cc1, the melting point was 220 to 230 °C.
CC(C)c1nc(C(=O)O)nn1-c1c(Cl)cccc1Cl gave a melting point of 179 to 181 °C.
In the case of O=C(O)c1cc([N+](=O)[O-])cc([N+](=O)[O-])c1F, the melting point is reported as 204 to 206 °C.
With O=Cc1ccc(-c2ccc(Br)cc2)s1 the melting point was 110 to 112 °C.
Cc1ccc(-n2c(N)nc3cc(C)ccc32)cc1 gave a melting point of 162 to 164 °C.
O=C1C=CC(=O)N1c1cnccn1 gave a melting point of 116 to 118 °C.
For CCn1cnnc1-c1cccc(N)c1, the melting point was 179 to 181 °C.
O=C(O)c1cccc(OCC(F)(F)F)n1 showed a melting point of 138 to 140 °C.
CC(C)Nc1ccc(S(C)(=O)=O)cc1 showed a melting point of 111 to 113 °C.
With CCOC(=O)c1sc2nc(C)nc(Cl)c2c1C the melting point was 145 to 147 °C.
O=C(O)CSC1=NS(=O)(=O)c2ccccc21 showed a melting point of 213 to 215 °C.
Compound Cc1ccc(C)c(C(=O)CCC(=O)O)c1 has a melting point of 80 to 84 °C.
Work on N#CCc1ccc(NC2CCCCC2)cc1 yielded a melting point of 57 to 59 °C.
O=C(O)Cn1[nH]c(=O)c2ccccc2c1=O gave a melting point of 272 to 274 °C.
For N#CCn1cc(C(=O)O)c2ccccc21, the melting point was 199 to 201 °C.
With CN1CCN(Cc2ccc(N)cc2)CC1 the melting point was 96 to 98 °C.
Cc1nn(Cc2ccc(F)cc2)c2[nH]nc(N)c12 gave a melting point of 140 to 142 °C.
Work on CC1(O)CCNC1 (configuration not stated) yielded a melting point of 37 to 39 °C.
Compound CS(=O)(=O)Nc1ccc(-c2csc(N)n2)cc1 has a melting point of 196 to 198 °C.
With Cn1c(-c2cccc(O)c2)nc2ccccc21 the melting point was 174 to 176 °C.
With COC(=O)c1ccccc1CC(=O)O the melting point was 139 to 141 °C.
For O=C(O)C=Cc1ccccc1OC(F)F, the melting point was 164 to 166 °C.
Work on O=C(O)C(c1ccccc1)N1CCCCC1=O (configuration not stated) yielded a melting point of 148 to 150 °C.
COc1ccc(C(=O)O)cc1S(=O)(=O)Nc1ccc(Br)cc1 showed a melting point of 257 to 259 °C.
With Cn1c(-c2ccccc2)c(C=O)c2ccccc21 the melting point was 125 to 127 °C.
For Nc1ccccc1CN1C(=O)CCC1=O, the melting point was 108 to 110 °C.
In the case of NC(=S)c1ccc(NC(=O)c2ccco2)cc1, the melting point is reported as 258 to 260 °C.
In the case of CCCCn1c(N)c(NCC)c(=O)[nH]c1=O, the melting point is reported as 285 to 286 °C.
For O=C(O)c1ccc2c(c1)C(=O)N(Cc1ccccc1)C2=O, the melting point was 198 to 200 °C.
Work on Cc1cc(C#N)ccc1NC1CC1 yielded a melting point of 101 to 103 °C.
O=[N+]([O-])c1cc(Cl)c(S(=O)(=O)Cl)c(Cl)c1 gave a melting point of 92 to 94 °C.
Work on NS(=O)(=O)c1nc2ccccc2[nH]1 yielded a melting point of 215 to 217 °C.
Compound CC(C)COc1ccc(C(=O)O)cn1 has a melting point of 105 to 107 °C.
CC(=O)CCc1ccc(O)c(F)c1 gave a melting point of 88 to 90 °C.
For O=Cc1c(Cl)nc2ccccn12, the melting point was 124 to 126 °C.
CCOc1cc(C(=O)O)ccc1C gave a melting point of 173 to 175 °C.
Cc1ccc(N)cc1S(=O)(=O)Nc1cccc(Cl)c1 gave a melting point of 158 to 160 °C.
Ic1ccc(OCc2ccncc2)cc1 showed a melting point of 152 to 154 °C.
For O=C(O)CNC(=O)c1ccc2[nH]nnc2c1, the melting point was 215 to 217 °C.
Cc1ccoc1-c1nnc(N)s1 showed a melting point of 153 to 155 °C.
With O=C(O)c1cc(S(=O)(=O)N2CCOCC2)ccc1N1CCCCC1 the melting point was 179 to 181 °C.
CCOc1ccc(NC(=O)c2ccc(NC(=O)CCl)cc2)cc1 gave a melting point of 253 to 255 °C.
Work on CC(C)Cc1ccc(C2(C)NC(=O)NC2=O)cc1 (configuration not stated) yielded a melting point of 178 to 180 °C.
For N#Cc1cc(N)c(Cl)c([N+](=O)[O-])c1, the melting point was 205 to 207 °C.
O=C(CCl)NC(Cc1c[nH]c2ccccc12)C(=O)O (configuration not stated) gave a melting point of 153 to 155 °C.
With COc1ccc(C(=O)Nc2sc3c(c2C(=O)O)CCCC3)cc1 the melting point was 216 to 220 °C.
For Cc1cc(-c2nccn2Cc2ccccc2)c(=O)[nH]n1, the melting point was 215 to 217 °C.
With Cc1ccccc1NC1=NC(C)(C)CS1 the melting point was 159 to 161 °C.
Ic1cnc2ccccn12 showed a melting point of 166 to 168 °C.
With O=C(O)c1nc2[nH]c(-c3ccccc3)cc(=O)n2n1 the melting point was 282 to 284 °C.
In the case of O=C(O)c1csc(CCc2ccccc2)n1, the melting point is reported as 132 to 134 °C.
CC(C)(C(N)=O)c1ccc(N)cc1 gave a melting point of 122 to 124 °C.
Work on CC(C)(C)NS(=O)(=O)c1cc(C(=O)O)ccc1F yielded a melting point of 182 to 184 °C.
Cc1ccc(-n2cnnn2)cc1N showed a melting point of 171 to 173 °C.
In the case of Cc1cccc(-c2[nH]ncc2C=O)c1, the melting point is reported as 55 to 57 °C.
Work on COc1cc(C=O)ccc1OCC#N yielded a melting point of 75 to 77 °C.
In the case of O=C(O)C1=NN(c2nc3ccccc3[nH]2)C(=O)CC1, the melting point is reported as 328 to 330 °C.
Work on Cc1ccc(C2NCC(CCl)O2)cc1 (configuration not stated) yielded a melting point of 60 to 64 °C.
For CNC(C(N)=O)c1cccc(F)c1 (configuration not stated), the melting point was 153 to 155 °C.
Compound COc1cc(C#N)ccc1OCC1CCCO1 (configuration not stated) has a melting point of 86 to 88 °C.
COC(=O)COc1ccc(N)c2ccccc12 gave a melting point of 83 to 85 °C.
CC(=Cc1ccc(OCc2ccccc2)c(OCc2ccccc2)c1)C(=O)O showed a melting point of 138 to 140 °C.
In the case of CN(C)S(=O)(=O)c1ccc2c(c1)NCC2, the melting point is reported as 121 to 123 °C.
For NNc1ncccn1, the melting point was 90 to 92 °C.
Work on O=C(O)COc1ccc(Cl)c2ccccc12 yielded a melting point of 162 to 164 °C.
Work on Nc1cc(C2CCC2)no1 yielded a melting point of 77 to 79 °C.
Work on COCCNS(=O)(=O)c1ccc(C)c(C(=O)O)c1 yielded a melting point of 137 to 139 °C.
Nc1nn2cc(-c3ccccc3)nc2c2ccccc12 showed a melting point of 215 to 217 °C.
Work on Cc1ccc(C(=O)O)cc1S(=O)(=O)N1CCOCC1 yielded a melting point of 176 to 178 °C.
With CSCc1cc(C(=O)O)sc1C the melting point was 135 to 137 °C.
For Clc1nc(CN2CCOCC2)nc2scc(-c3ccccc3)c12, the melting point was 82 to 84 °C.
In the case of O=C(O)CCCNc1ccc([N+](=O)[O-])cc1, the melting point is reported as 158 to 160 °C.
COc1cccc(CSCC(N)C(=O)O)c1 (configuration not stated) showed a melting point of 194 to 196 °C.
O=C(CCCl)Nc1cccc([N+](=O)[O-])c1 showed a melting point of 75 to 77 °C.
CC(Sc1ccc(Br)cc1)C(=O)O (configuration not stated) gave a melting point of 113 to 115 °C.
Nc1ccn(-c2ncccc2F)n1 gave a melting point of 89 to 91 °C.
For CC(C)n1ccc(C(=O)O)n1, the melting point was 77 to 79 °C.
Cc1cc2oc(=O)cc(CCl)c2cc1C(C)C gave a melting point of 132 to 134 °C.
Work on O=C(NC1CC1)c1cc(Br)c[nH]1 yielded a melting point of 144 to 146 °C.
With O=C(O)Cc1ccc2c(c1)CCC2 the melting point was 86 to 90 °C.
In the case of NS(=O)(=O)c1ccc(CCNS(=O)(=O)c2cccc(C(=O)O)c2)cc1, the melting point is reported as 226 to 228 °C.
Work on Cc1nn(-c2ccccc2)c(C)c1CN yielded a melting point of 77 to 79 °C.
In the case of c1ccc(-c2csc(N3CCOCC3)n2)cc1, the melting point is reported as 75 to 77 °C.
With CC(C)C1NC(=O)c2ccccc2NC1=O (configuration not stated) the melting point was 259 to 261 °C.
In the case of Cc1c(C(=O)O)c(=O)oc2ccccc12, the melting point is reported as 163 to 165 °C.
In the case of CC1(C)NCCNC1=O, the melting point is reported as 113 to 115 °C.
Nn1cn[nH]c1=O gave a melting point of 169 to 171 °C.
With CS(=O)(=O)Cc1ccc(C(=O)O)cc1 the melting point was 253 to 255 °C.
With C=CC(=O)ON=C(N)c1ccc(Cl)cc1 the melting point was 120 to 122 °C.
Work on O=C(O)c1cnc(-c2ccccn2)s1 yielded a melting point of 199 to 201 °C.
In the case of CC(C)(C)c1ccc(SCC(=O)O)cc1, the melting point is reported as 65 to 67 °C.
O=C(O)c1nn(-c2ccccc2I)cc1O gave a melting point of 198 to 200 °C.
With Cc1cccc(-c2nc(CCl)no2)c1 the melting point was 44 to 46 °C.
Work on O=C(O)COc1cccc(C(F)(F)F)c1 yielded a melting point of 85 to 87 °C.
Compound Nc1ccc(Oc2ccncc2)c(Cl)c1 has a melting point of 129 to 131 °C.
Work on c1cc2[nH]ccc2cn1 yielded a melting point of 107 to 109 °C.
Work on O=C(O)c1ccccc1SCc1ccsc1 yielded a melting point of 213 to 215 °C.
For O=C(O)c1ccc(-c2ccccc2Cl)o1, the melting point was 210 to 212 °C.
In the case of NC(=O)NCc1ccc(S(N)(=O)=O)cc1, the melting point is reported as 175 to 177 °C.
In the case of CCS(=O)(=O)NCCS(=O)(=O)Cl, the melting point is reported as 68 to 70 °C.
With O=C(O)c1cnc2ccc(Br)cc2c1O the melting point was 274 to 276 °C.
O=[N+]([O-])c1cc(Cl)cc(Cl)c1S(=O)(=O)Cl gave a melting point of 218 to 221 °C.
Work on Nc1cc(Cl)ccc1-n1cncn1 yielded a melting point of 93 to 97 °C.
With COC(=O)c1cncnc1O the melting point was 201 to 203 °C.
With CCOC(=O)c1ccc(-n2c(C)cc(C=O)c2C)cc1 the melting point was 113 to 115 °C.
In the case of O=C(O)CCc1nc(-c2ccc(F)cc2)no1, the melting point is reported as 150 to 152 °C.
Work on O=C(O)Cc1csc(Cc2ccc(F)cc2)n1 yielded a melting point of 137 to 139 °C.
CN1CCCc2cc(/C=C/C(=O)O)ccc21 showed a melting point of 169 to 171 °C.
Work on Fc1ccccc1CNc1ccc(Cl)nn1 yielded a melting point of 169 to 171 °C.
For N#Cc1cnn(-c2ccncc2)c1N, the melting point was 273 to 275 °C.
ClCc1csc(-c2ccc3c(c2)OCO3)n1 gave a melting point of 106 to 108 °C.
For Cc1cc(C)n(-c2ccc(Cl)c(C(=O)O)n2)n1, the melting point was 184 to 186 °C.
O=C(O)CN1CC(=O)NC1=O showed a melting point of 139 to 141 °C.
NC(=O)NC(Cc1c[nH]c2ccccc12)C(=O)O (configuration not stated) gave a melting point of 198 to 202 °C.
In the case of ON=Cc1ccc(N2CCOCC2)cc1, the melting point is reported as 186 to 188 °C.
Work on CC(C)c1ccc(-c2cc(N)on2)cc1 yielded a melting point of 113 to 115 °C.
With CN1CC(=O)Nc2ccccc2C1=O the melting point was 249 to 251 °C.
